From patent US7517517B2 (Janssen Pharmaceutica N.V., priority 2002, dated 2009)
Read-outs that look alike come from different tables or passages of the source.

Columns and labels:
rat mGlu1a receptor [1] = molecular target: T1, rat mGlu1a receptor (Rattus norvegicus, UniProt P23385); test: Intracellular Ca2+ response in rat mGlu1a receptor expressing CHO-dhfr− cells (FLIPR); assay type: cell-based; details: for IC50: read-out: IC50, inhibition of the glutamate-induced increase in [Ca2+]i
T1 construct: host or cells: CHO-dhfr- cells

rat mGlu1a receptor [2] = molecular target: T1, rat mGlu1a receptor; test: [3H]Compound A binding to rat mGlu1a receptor CHO-dhfr− membranes (saturation, kinetics, inhibition); details: for Ki: 2.5 nM [3H]Compound A, 30 min at 4° C.; for Ki / Hill coefficient: mean ± SD of 3–4 experiments; for Hill coefficient: inhibition of [3H]Compound A-binding; for inhibition of [3H]Compound A binding (in words): rat mGlu1a receptor CHO-dhfr− membranes
rat mGlu1a receptor [3] = molecular target: T1, rat mGlu1a receptor; test: [3H]quisqualate binding to rat mGlu1a receptor CHO-dhfr− membranes (saturation, inhibition)
human mGlu1a receptor = molecular target: T2, human mGlu1a receptor (Homo sapiens, UniProt Q13255); test: Intracellular Ca2+ response in human mGlu1a receptor expressing L929sA cells (FLIPR); assay type: cell-based
T2 construct: expressed in transfected cells; host or cells: L929sA cells

rat mGlu5 receptor [4] = molecular target: T3, rat mGlu5 receptor (Rattus norvegicus, UniProt P31424); test: Intracellular Ca2+ response in rat mGlu5 receptor expressing CHO-dhfr− cells (FLIPR); assay type: cell-based; details: tested up to a concentration of 10 μM
T3 construct: host or cells: CHO-dhfr- cells
Description: L929sA cells stably expressing the human mGlu1a receptor were obtained as described in Lavreysen et al., Mol. Pharmacol. 61:1244-1254, 2002 and were cultured in Glutamax-I medium supplemented with 10% heat inactivated dialysed foetal calf serum, 0.1 mg/ml streptomycin sulphate and 100 units/ml penicillin. CHO-dhfr^− cells stably expressing the rat mGlu1a, -2, -3, -4, -5 and -6 receptor were a kind gift from S. Nakanishi (Tokyo University, Japan) and were grown in DMEM with Glutamax-I with 10% heat inactivated dialysed foetal calf serum, 0.4 mM L-prolin, 0.2 mg/ml streptomycin sulphate and 200 units/ml penicillin. Cells were kept in an atmosphere of 37° C. and 5% CO2.
Intracellular calcium ion levels ([Ca^2+]i) in human mGlu1a receptor expressing L929sA cells were measured using the Fluorometric Imaging Plate Reader (FLIPR, Molecular Devices, CA, USA), as described in Lavreysen et al., Mol. Pharmacol. 61:1244-1254, 2002. The same procedure was followed for CHO-dhfr^− cells expressing the rat mGlu1a receptor. For the rat mGlu5 receptor, cells were seeded at 30.000 cells/well 2 days before the experiment.

rat mGlu2 receptor = molecular target: T4, rat mGlu2 receptor (Rattus norvegicus, UniProt P31421); test: [35S]GTPγS binding to membranes from CHO-dhfr− cells expressing the rat mGlu2 receptor; assay type: biochemical
T4 construct: host or cells: CHO-dhfr- cells
Description: (§1) Confluent cells were washed in ice-cold phosphate-buffered saline and stored at −20° C. until membrane preparation. After thawing, cells were suspended in 50 mM Tris-HCl, pH 7.4 and collected through centrifugation for 10 min at 23,500 g at 4° C. The cells were lysed in 10 mM hypotonic Tris-HCl, pH 7.4. After recentrifugation for 20 min at 30,000 g at 4° C., the pellet was homogenized with an Ultra Turrax homogenizer in 50 mM Tris-HCl, pH 7.4. Protein concentrations were measured by the Bio-Rad protein assay using bovine serum albumin as standard.
(§2) Membranes were thawed on ice and diluted in 10 mM HEPES acid, 10 mM HEPES salt, pH 7.4, containing 100 mM NaCl, 3 mM MgCl2, 3 μM GDP and 10 μg/ml saponine. Assay mixtures contained 10 μg of membrane protein and were pre-incubated with compounds or buffer for 5 min at 37° C. […] [^35S]GTPγS was added to a final concentration of 0.1 nM for another 30 min at 37° C. Reactions were terminated by rapid filtration through Unifilter-96 GF/B filter plates (Packard, Meriden, Conn.) using a 96-well Packard filtermate harvester. Filters were washed 2 times with ice-cold 10 mM NaH2PO4/10 mM Na2HPO4 buffer, pH 7.4. Filter-bound radioactivity was counted in a Microplate Scintillation and Luminesence Counter from Packard.

rat mGlu3 receptor = molecular target: T5, rat mGlu3 receptor (Rattus norvegicus, UniProt P31422); test: [35S]GTPγS binding to membranes from CHO-dhfr− cells expressing the rat mGlu3 receptor; assay type: biochemical
T5 construct: host or cells: CHO-dhfr- cells
Description: as §1, §2

rat mGlu4 receptor = molecular target: T6, rat mGlu4 receptor (Rattus norvegicus, UniProt P31423); test: [35S]GTPγS binding to membranes from CHO-dhfr− cells expressing the rat mGlu4 receptor; assay type: biochemical
T6 construct: host or cells: CHO-dhfr- cells
Description: as §1, §2

rat mGlu6 receptor = molecular target: T7, rat mGlu6 receptor (Rattus norvegicus, UniProt P35349); test: [35S]GTPγS binding to membranes from CHO-dhfr− cells expressing the rat mGlu6 receptor; assay type: biochemical
T7 construct: host or cells: CHO-dhfr- cells
Description: as §1, §2

rat mGlu1a receptor [5] = molecular target: T1, rat mGlu1a receptor; test: IP response (basal IP accumulation) in rat mGlu1a receptor expressing CHO-dhfr− cells; assay type: cell-based
AMPA receptor = test: [3H]Ro 48-8587 binding to rat forebrain membranes; details: [3H]Ro 48-8587, rat forebrain; tested up to 10 μM
Description: (§3) Tissue preparation. Male Wistar rats (˜200 g) were sacrificed by decapitation. The brains were rapidly removed and forebrain was dissected. The tissue was homogenized with an Ultra Turrax in 20 volumes of ice-cold H2O and was centrifuged at 48,000 g for 20 min. After homogenisation using a DUAL homogeniser, membranes were washed by centrifugation at 48,000 g for 10 min. The pellet was then suspended in 20 volumes of 50 mM Tris-HCl, pH 7.4 containing 0.04% Triton X-100 and again centrifuged at 48,000 g for 20 min. The final pellet was frozen at −80° C.
(§4) In vitro binding assay. At the day of the experiment, the pellet was thawed, washed and rehomogenised using a DUAL in ice-cold 50 mM Tris-acetate, pH 7.4. Assay conditions for the different radioligands were as follows. The final concentration of membrane in the assay was 20 mg/ml (wet weight) for [^3H]Ro 48-8587 and [^3H]L689560 and was 10 mg/ml (wet weight) for [^3H]CGP39653 and [^3H]MK-801. Radioligand concentrations of 2 nM [^3H]Ro 48-8587, 2 nM [^3H]L689560, 2 nM [^3H]CGP39653 and 3 nM [^3H]MK-801 were used. […] For [^3H]L689560 and [^3H]MK-801 binding, 100 μM D-serine or 10 μM phencyclidine were used to define non-specific binding, respectively. […] Radioactivity collected on the filters was counted as above.

[6] = molecular target: T8, glycine site of the NMDA receptor (Rattus norvegicus, UniProt P35439); test: [3H]L689560 binding to rat forebrain membranes; details: [3H]L689560, rat forebrain; tested up to 10 μM
T8 construct: from tissue; host or cells: rat forebrain membranes
Description: as §3, §4

[7] = system: glutamate site of the NMDA receptor; test: [3H]CGP39653 binding to rat forebrain membranes; details: [3H]CGP39653, rat forebrain; tested up to 10 μM
Description: as §3, §4

mGlu1 receptor = mGlu1 receptor (Rattus norvegicus, UniProt P23385); test: [3H]Compound A binding to rat brain membranes (cortex, hippocampus, striatum, cerebellum); details: tested up to 30 μM
Description: Tissue preparation. Male Wistar rats (˜200 g) were sacrificed by decapitation. The brains were rapidly removed and cortex, hippocampus, striatum and cerebellum were immediately dissected. The fresh tissue was homogenized with an Ultra Turrax in 20 volumes of 50 mM Tris-HCl, pH 7.4 and tissue was centrifuged at 23,500 g for 10 min. After homogenisation using a DUAL homogeniser, membranes were washed twice by centrifugation at 23,500 g for 10 min. The final pellet was suspended in 10 volumes of 50 mM Tris-HCl, pH 7.4 and frozen at −80° C.
In vitro binding assay. After thawing, membranes from rat cortex, cerebellum, striatum and hippocampus were rehomogenized using a DUAL and suspended in ice-cold binding buffer containing 50 mM Tris-HCl, 1.2 mM MgCl2, 2 mM CaCl2, pH 7.4. The binding assay was carried out in a total volume of 0.5 ml containing 2.5 nM [^3H]Compound A and a membrane aliquot corresponding to 40 μg for cerebellar membranes, 60 μg for hippocampal membranes, 80 μg for striatal membranes or 150 μg for cortical membranes. […] After incubation for 30 min at 4° C., the labelled membranes were washed and harvested by rapid vacuum filtration over Whatman GF/C glass-fibre filters using a 40-well filtration manifold and radioactivity collected on the filters was counted as above.
Data analysis was performed using the GraphPad Prism program (GraphPad Prism Software, Inc., San Diego, Calif.). Saturation binding experiments were analysed using a non-linear regression analysis. Inhibition curves were fitted using non-linear regression analysis fitting the one-site competition equation: Y=Bottom+((Top−Bottom)/1+10^X-LogIC50). Ki values were calculated using the Cheng-Prusoff equation: Ki=IC50/[1+([C]/KD)] where C is the concentration of radioligand and KD is the dissociation constant of the radioligand (Cheng and Prusoff, Biochem. Pharmacol. 22, 3099-3108, 1973). The observed on (kob) and off (koff) rate were calculated from association-dissociation curves using the one-phase-exponential association and decay equations in the Prism program, respectively. kon was calculated by subtracting koff from kob and dividing by the radioligand concentration. The two-tailed Student's t-test was used for statistical evaluation of the binding data: * p<0.05, ** p<0.01 and *** p<0.001. The Dunnett's t-test following a 2-way analysis of variance (with as factors compound concentration and experiment) were used to analyse the data from the IP experiments.

rat mGlu5 receptor [8] = molecular target: T3, rat mGlu5 receptor; test: [3H]MPEP binding to rat mGlu5 receptor CHO-dhfr− membranes; details: rat mGlu5 receptor containing membranes; positive control
[9] = ratio of IC50 values, rat mGlu1a Ca2+ assay
[10] = read-out: IC50 for inhibition of glutamate-induced [35S]GTPγS activation
[11] = rat mGlu1a receptor CHO-dhfr− membranes
[12] = inhibition of [3H]quisqualate binding, rat mGlu1a receptor CHO-dhfr− membranes, mean ± SD of 2 experiments

T7 sequence (P35349 24-871): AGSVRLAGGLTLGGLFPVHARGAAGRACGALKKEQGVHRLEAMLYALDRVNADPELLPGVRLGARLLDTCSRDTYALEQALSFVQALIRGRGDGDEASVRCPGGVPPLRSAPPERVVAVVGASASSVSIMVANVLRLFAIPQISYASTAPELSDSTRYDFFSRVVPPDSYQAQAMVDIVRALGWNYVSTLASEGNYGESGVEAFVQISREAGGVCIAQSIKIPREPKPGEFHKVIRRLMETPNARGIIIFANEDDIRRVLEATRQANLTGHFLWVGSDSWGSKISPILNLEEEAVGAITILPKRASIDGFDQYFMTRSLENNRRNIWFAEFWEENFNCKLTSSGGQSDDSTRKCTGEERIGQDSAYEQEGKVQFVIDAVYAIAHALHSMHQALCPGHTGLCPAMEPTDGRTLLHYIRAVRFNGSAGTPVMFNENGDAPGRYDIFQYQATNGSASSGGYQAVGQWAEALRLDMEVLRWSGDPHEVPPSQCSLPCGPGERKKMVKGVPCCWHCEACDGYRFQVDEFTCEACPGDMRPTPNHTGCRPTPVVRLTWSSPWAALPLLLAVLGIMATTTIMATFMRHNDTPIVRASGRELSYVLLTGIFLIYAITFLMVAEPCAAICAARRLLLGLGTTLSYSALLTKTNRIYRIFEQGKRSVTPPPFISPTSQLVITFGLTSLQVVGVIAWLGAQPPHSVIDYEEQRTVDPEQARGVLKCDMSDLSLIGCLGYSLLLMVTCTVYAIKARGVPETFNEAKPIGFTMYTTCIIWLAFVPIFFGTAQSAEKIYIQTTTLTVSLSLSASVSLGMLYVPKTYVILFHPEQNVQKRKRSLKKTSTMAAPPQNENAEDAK
T5 sequence (P31422 23-879): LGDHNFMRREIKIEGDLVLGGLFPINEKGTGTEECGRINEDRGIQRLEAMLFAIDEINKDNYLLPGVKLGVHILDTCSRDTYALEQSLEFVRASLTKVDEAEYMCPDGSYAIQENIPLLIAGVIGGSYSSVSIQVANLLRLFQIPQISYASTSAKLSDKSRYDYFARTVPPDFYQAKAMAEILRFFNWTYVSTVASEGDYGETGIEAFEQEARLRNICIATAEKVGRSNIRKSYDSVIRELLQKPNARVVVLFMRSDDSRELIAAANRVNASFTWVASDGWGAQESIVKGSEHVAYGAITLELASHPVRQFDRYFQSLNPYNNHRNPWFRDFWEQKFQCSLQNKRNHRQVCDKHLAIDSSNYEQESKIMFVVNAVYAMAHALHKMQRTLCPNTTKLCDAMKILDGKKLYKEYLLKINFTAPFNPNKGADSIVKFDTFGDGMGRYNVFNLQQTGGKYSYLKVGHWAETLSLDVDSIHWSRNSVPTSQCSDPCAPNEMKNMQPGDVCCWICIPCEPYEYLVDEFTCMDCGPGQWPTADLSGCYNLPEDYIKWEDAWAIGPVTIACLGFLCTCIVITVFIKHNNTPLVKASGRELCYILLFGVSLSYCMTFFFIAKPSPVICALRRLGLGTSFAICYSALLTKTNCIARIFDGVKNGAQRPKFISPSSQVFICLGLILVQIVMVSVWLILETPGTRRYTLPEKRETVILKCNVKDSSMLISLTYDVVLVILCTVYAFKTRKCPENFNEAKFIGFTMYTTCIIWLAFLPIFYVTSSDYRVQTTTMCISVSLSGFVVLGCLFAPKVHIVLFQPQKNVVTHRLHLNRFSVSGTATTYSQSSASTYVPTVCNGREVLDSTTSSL
T6 sequence (P31423 33-912): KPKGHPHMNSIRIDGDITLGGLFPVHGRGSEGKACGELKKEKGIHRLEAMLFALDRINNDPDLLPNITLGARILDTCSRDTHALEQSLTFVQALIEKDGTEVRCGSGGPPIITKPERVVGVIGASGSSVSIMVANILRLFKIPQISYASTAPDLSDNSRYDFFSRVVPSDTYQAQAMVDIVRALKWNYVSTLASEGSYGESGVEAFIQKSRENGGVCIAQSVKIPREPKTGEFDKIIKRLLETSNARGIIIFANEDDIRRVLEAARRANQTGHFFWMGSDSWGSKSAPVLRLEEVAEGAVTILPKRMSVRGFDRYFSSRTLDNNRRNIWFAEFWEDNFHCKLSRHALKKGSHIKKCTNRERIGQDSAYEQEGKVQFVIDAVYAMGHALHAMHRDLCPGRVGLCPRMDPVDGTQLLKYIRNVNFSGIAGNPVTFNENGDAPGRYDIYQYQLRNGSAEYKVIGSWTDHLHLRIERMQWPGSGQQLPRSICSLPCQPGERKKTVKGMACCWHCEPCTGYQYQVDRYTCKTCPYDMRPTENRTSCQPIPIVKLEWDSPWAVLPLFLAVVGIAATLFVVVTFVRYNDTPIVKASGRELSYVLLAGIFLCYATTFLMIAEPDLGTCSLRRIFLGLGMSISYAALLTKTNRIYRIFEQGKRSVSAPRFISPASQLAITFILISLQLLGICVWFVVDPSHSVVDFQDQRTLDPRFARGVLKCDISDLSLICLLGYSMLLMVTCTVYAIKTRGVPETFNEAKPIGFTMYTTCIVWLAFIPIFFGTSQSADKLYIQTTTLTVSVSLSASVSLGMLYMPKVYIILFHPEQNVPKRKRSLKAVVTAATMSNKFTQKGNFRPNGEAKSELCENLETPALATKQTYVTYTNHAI
T4 sequence (P31421 19-872): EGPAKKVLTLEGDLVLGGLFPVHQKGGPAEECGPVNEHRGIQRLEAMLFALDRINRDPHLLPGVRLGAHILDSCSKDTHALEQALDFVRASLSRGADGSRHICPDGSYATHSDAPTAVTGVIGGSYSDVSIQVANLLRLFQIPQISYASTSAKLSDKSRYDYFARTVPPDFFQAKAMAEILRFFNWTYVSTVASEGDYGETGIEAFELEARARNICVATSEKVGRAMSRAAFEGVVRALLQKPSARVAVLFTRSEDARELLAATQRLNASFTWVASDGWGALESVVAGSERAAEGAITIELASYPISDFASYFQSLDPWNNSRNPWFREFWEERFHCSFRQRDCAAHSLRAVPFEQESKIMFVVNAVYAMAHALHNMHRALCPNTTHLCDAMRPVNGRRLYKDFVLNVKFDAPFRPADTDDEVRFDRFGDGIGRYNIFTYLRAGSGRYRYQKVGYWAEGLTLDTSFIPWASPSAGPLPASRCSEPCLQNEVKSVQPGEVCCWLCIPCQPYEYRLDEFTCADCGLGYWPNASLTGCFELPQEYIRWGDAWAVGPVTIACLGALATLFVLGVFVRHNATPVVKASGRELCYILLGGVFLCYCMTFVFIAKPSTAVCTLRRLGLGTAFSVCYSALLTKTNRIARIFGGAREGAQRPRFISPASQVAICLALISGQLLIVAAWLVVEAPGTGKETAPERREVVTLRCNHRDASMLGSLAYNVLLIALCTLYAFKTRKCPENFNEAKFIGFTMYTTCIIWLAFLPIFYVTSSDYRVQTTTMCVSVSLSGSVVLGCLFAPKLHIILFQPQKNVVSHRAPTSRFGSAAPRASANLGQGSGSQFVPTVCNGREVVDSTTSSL
T1 sequence (P23385 19-1199): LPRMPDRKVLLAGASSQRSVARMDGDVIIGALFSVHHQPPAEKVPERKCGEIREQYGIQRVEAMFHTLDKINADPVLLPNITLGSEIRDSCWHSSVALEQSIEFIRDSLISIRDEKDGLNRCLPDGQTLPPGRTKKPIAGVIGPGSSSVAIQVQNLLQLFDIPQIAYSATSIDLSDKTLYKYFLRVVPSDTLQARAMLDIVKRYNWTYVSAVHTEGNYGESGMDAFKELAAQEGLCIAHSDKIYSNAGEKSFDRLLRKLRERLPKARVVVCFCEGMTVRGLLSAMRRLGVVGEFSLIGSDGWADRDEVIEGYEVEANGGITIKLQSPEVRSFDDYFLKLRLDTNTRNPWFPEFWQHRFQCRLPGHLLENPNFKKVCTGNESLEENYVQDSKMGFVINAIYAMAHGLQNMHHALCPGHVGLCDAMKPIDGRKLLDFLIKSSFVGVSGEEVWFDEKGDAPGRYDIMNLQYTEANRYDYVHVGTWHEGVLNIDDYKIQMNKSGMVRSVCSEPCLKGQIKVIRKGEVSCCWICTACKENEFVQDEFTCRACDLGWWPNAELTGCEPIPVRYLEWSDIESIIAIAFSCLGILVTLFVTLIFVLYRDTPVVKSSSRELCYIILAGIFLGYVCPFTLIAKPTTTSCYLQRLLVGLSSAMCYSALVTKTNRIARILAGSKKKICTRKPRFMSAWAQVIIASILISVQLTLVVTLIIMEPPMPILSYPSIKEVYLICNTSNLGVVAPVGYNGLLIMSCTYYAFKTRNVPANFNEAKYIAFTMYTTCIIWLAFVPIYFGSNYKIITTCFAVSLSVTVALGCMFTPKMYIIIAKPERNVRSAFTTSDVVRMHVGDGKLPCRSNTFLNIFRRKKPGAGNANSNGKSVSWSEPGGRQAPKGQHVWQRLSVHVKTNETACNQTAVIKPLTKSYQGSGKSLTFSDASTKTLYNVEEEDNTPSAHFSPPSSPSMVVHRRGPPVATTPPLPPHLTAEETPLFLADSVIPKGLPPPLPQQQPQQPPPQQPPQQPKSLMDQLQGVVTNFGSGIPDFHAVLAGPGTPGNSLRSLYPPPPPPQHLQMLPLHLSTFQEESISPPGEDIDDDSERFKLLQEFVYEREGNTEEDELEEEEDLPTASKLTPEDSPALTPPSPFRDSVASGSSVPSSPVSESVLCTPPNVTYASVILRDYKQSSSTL

## CCOC(=O)[C@]12CC1/C(=N\O)c1ccccc1O2 (mixture of isomers) [CPCCOEt, reference compound]
Rat mGlu1a receptor [1]; CHO-dhfr− cells expressing rat mGlu1a, same assay
  IC50: 10.3 ± 0.8 µM
Rat mGlu1a receptor [2]
  Ki: 4900 nM
Rat mGlu1a receptor [3]
  Ki: > 1000 µM

## O=C(Cc1ccccc1)c1ccc2nc3c(cc2c1)CCCO3 [Compound A]
Rat mGlu1a receptor [1]; glutamate concentration-response curve in absence and presence of compound (FIG. 1B)
  mode of antagonism: non-competitive
Rat mGlu1a receptor [1]; in the presence of 100 nM-1 μM compound
  inhibition of mGlu1a receptor-mediated signalling: Complete inhibition
Rat mGlu1a receptor [1]; [9]
  times more potent than BAY 36-7620: about 8 times
  times more potent than CPCCOEt: ~500 times
Rat mGlu1a receptor [1]
  IC50: 0.0216 ± 0.005 µM
Human mGlu1a receptor
  IC50: 0.0104 ± 0.0047 µM
Rat mGlu5 receptor [4]
  inhibition of glutamate-induced Ca2+ signaling: did not inhibit
Rat mGlu2 receptor; 10 μM compound together with glutamate, rat mGlu2
  glutamate Emax upon addition of compound (positive allosteric modulation): not increased
Rat mGlu2 receptor; [10]
  IC50: > 30 µM
Rat mGlu2 receptor; up to 30 μM, rat mGlu2
  agonist activity in [35S]GTPγS assay: did not exhibit agonist activity
Rat mGlu3 receptor; 10 μM compound together with glutamate, rat mGlu3
  glutamate Emax upon addition of compound (positive allosteric modulation): not increased
Rat mGlu3 receptor; [10]
  IC50: > 30 µM
Rat mGlu3 receptor; up to 30 μM, rat mGlu3
  agonist activity in [35S]GTPγS assay: did not exhibit agonist activity
Rat mGlu4 receptor; 10 μM compound together with glutamate, rat mGlu4
  glutamate Emax upon addition of compound (positive allosteric modulation): not increased
Rat mGlu4 receptor; [10]
  IC50: > 30 µM
Rat mGlu4 receptor; up to 30 μM, rat mGlu4
  agonist activity in [35S]GTPγS assay: did not exhibit agonist activity
Rat mGlu6 receptor; 10 μM compound together with glutamate, rat mGlu6
  glutamate Emax upon addition of compound (positive allosteric modulation): not increased
Rat mGlu6 receptor; [10]
  IC50: > 30 µM
Rat mGlu6 receptor; up to 30 μM, rat mGlu6
  agonist activity in [35S]GTPγS assay: did not exhibit agonist activity
Rat mGlu1a receptor [5]; 1 μM compound, p<0.05
  decrease of basal IP accumulation: 24±4%
Rat mGlu1a receptor [5]; 100 μM compound
  maximal decrease of basal IP accumulation: 33±3%
Rat mGlu1a receptor [2]
  Ki: 1.35 ± 0.99 nM
  Hill coefficient: 0.94 ± 0.04
Rat mGlu1a receptor [3]
  Ki: > 1000 µM
Rat mGlu1a receptor [3]; [11]
  effect on [3H]quisqualate binding (in words): did not displace
AMPA receptor
  binding to the AMPA receptor: did not bind
[6]
  binding to the glycine site of the NMDA receptor: nor did it bind
[7]
  binding to the glutamate site of the NMDA receptor: nor did it bind

## Cc1cc(C(=O)O)ccc1[C@H](N)C(=O)O [LY367385, reference compound]
Rat mGlu1a receptor [2]
  Ki: > 1e+06 nM
  inhibition of [3H]Compound A binding (in words): did not inhibit
Rat mGlu1a receptor [3]; [12]
  Hill coefficient: 0.99 ± 0.01
  Ki: 1.18 ± 0.47 µM

## Cc1cccc(C#Cc2ccccc2)n1 [MPEP, reference compound]
mGlu1 receptor
  effect on [3H]Compound A binding to rat cerebellar membranes: did not affect

## O=C(NC12CC3CC(CC(C3)C1)C2)c1cnc2ccccc2n1 [NPS 2390, reference compound]
Rat mGlu1a receptor [2]
  Ki: 1.36 ± 0.5 nM
  Hill coefficient: 0.97 ± 0.02
Rat mGlu1a receptor [3]; [12]
  Ki: > 1000 µM
Rat mGlu1a receptor [3]; [11]
  effect on [3H]quisqualate binding (in words): did not affect

## Cc1cccc(C#Cc2ccccc2)n1 [[^3H]MPEP]
Rat mGlu5 receptor [8]
  specific binding: 95%

## N[C@@H](Cn1oc(=O)[nH]c1=O)C(=O)O [quisqualate, reference compound]
Rat mGlu1a receptor [2]
  inhibition of [3H]Compound A binding (in words): did not inhibit
Rat mGlu1a receptor [3]; [12]
  Hill coefficient: 0.98 ± 0.01
